Reference: ChEMBL document CHEMBL1201862, “PubChem BioAssay data set” (2004)
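These data come from cells grown in 96-well plates and exposed to compound for 48 hours at five concentrations. GI50 marks 50% less growth.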 Activity calls are given as the source filed them. Rule as the data show it: active = GI50 up to about 1.1 µM and inactive = higher.

Columns and labels:
Experiment in all cases: NCI anticancer screen, dose series, 48 h
UO-31 = tested on: UO-31
OVCAR-4 = tested on: OVCAR-4
EKVX = tested on: EKVX
Malme-3M = tested on: Malme-3M
CAKI-1 = tested on: CAKI-1
SN12C = tested on: SN12C
K562 = tested on: K562
DU-145 = tested on: DU-145
OVCAR-3 = tested on: OVCAR-3
HOP-62 = tested on: HOP-62
SF-539 = tested on: SF-539
LOX IMVI = tested on: LOX IMVI
COLO 205 = tested on: COLO 205
MOLT-4 = tested on: MOLT-4
RXF 393 = tested on: RXF 393
CCRF-CEM = tested on: CCRF-CEM
IGROV-1 = tested on: IGROV-1
SK-MEL-28 = tested on: SK-MEL-28
HOP-92 = tested on: HOP-92
SF-268 = tested on: SF-268

| Structure (SMILES) | GI50 (UO-31) | GI50 (OVCAR-4) | GI50 (EKVX) | GI50 (Malme-3M) | GI50 (CAKI-1) | GI50 (SN12C) | GI50 (K562) | GI50 (DU-145) | GI50 (OVCAR-3) | GI50 (HOP-62) | GI50 (SF-539) | GI50 (LOX IMVI) | GI50 (COLO 205) | GI50 (MOLT-4) | GI50 (RXF 393) | GI50 (CCRF-CEM) | GI50 (IGROV-1) | GI50 (SK-MEL-28) | GI50 (HOP-92) | GI50 (SF-268) |
| --- | --- | --- | --- | --- | --- | --- | --- | --- | --- | --- | --- | --- | --- | --- | --- | --- | --- | --- | --- | --- |
| N#CC(c1ccc(O)cc1)N1CCN(C(C#N)c2ccc(O)cc2)CC1 (stereo not given) | > 100 µM (inactive) | > 100 µM (inactive) | 35.7 µM (inactive) | > 100 µM (inactive) | > 100 µM (inactive) | > 87.1 µM (inactive) | > 100 µM (inactive) | > 51.8 µM (inactive) | > 100 µM (inactive) | 20.2 µM (inactive) | 34.7 µM (inactive) | > 100 µM (inactive) | > 100 µM (inactive) | > 100 µM (inactive) | 33.9 µM (inactive) | > 100 µM (inactive) | 51.1 µM (inactive) | 67.3 µM (inactive) | 23.3 µM (inactive) | 24.5 µM (inactive) |
| CC1=C(C)CC2C(=O)N(c3cc(C(C)(C)C)ccc3C(C)(C)C)C(=O)C2C1 (stereo not given) | > 100 µM (inactive) | > 100 µM (inactive) | > 100 µM (inactive) | 4.55 µM (inactive) | > 100 µM (inactive) | > 100 µM (inactive) | > 100 µM (inactive) | > 100 µM (inactive) | 66.2 µM (inactive) | 26.2 µM (inactive) | 78.3 µM (inactive) | > 100 µM (inactive) | > 100 µM (inactive) | > 100 µM (inactive) | 23.8 µM (inactive) | > 100 µM (inactive) | 61 µM (inactive) | > 100 µM (inactive) | 26.2 µM (inactive) | 7.91 µM (inactive) |
| CN(C)Cc1cc(/N=N/c2ccccc2Cl)cc(CN(C)C)c1O | 23.3 µM (inactive) | 60.1 µM (inactive) | > 100 µM (inactive) | > 10 µM (inactive) | > 100 µM (inactive) | > 100 µM (inactive) | 37.5 µM (inactive) | > 100 µM (inactive) | 21.4 µM (inactive) | 6.67 µM (inactive) | > 100 µM (inactive) | 16.9 µM (inactive) | 20.5 µM (inactive) | 20.5 µM (inactive) | 31.6 µM (inactive) | 25.6 µM (inactive) | 58.1 µM (inactive) | 18.5 µM (inactive) | 21.5 µM (inactive) | 73.8 µM (inactive) |
| Cc1ccc(-c2nc(N/N=C/c3ccc(O)cc3)c3ccccc3n2)cc1 | 5.47 µM (inactive) | 1.55 µM (inactive) | 3.98 µM (inactive) | 13.8 µM (inactive) | 10.8 µM (inactive) | 8.2 µM (inactive) | 22.8 µM (inactive) | 21.8 µM (inactive) | 4.29 µM (inactive) | 31.9 µM (inactive) | 27.3 µM (inactive) | 13.2 µM (inactive) | 23.4 µM (inactive) | 20.5 µM (inactive) | 21 µM (inactive) | 15.8 µM (inactive) | 8.47 µM (inactive) | 17.8 µM (inactive) | 32.4 µM (inactive) | 18.8 µM (inactive) |
| COC(=O)c1ccc(/C=N/c2cc(C)nn2-c2ccccc2)cc1 | > 100 µM (inactive) | 38.6 µM (inactive) | 75.7 µM (inactive) | 70.8 µM (inactive) | 93.1 µM (inactive) | 48.3 µM (inactive) | 4.5 µM (inactive) | 41 µM (inactive) | 12 µM (inactive) | 18.5 µM (inactive) | > 100 µM (inactive) | 35.9 µM (inactive) | 13.5 µM (inactive) | 8.47 µM (inactive) | > 100 µM (inactive) | 29.2 µM (inactive) | 34.9 µM (inactive) | 82.2 µM (inactive) | 99.1 µM (inactive) | 57.1 µM (inactive) |
| Cc1cccc(/C=N/NC(=S)NC2CCCCC2)n1 | 18.7 µM (inactive) | 17.3 µM (inactive) | 22.4 µM (inactive) | 16.2 µM (inactive) | 43.3 µM (inactive) | 27.4 µM (inactive) | 4.61 µM (inactive) | 29.6 µM (inactive) | 3.7 µM (inactive) | 20.9 µM (inactive) | 27.7 µM (inactive) | 14 µM (inactive) | 8.85 µM (inactive) | 2.26 µM (inactive) | 18.5 µM (inactive) | 1.14 µM (inactive) | 21.3 µM (inactive) | 46.7 µM (inactive) | 10.1 µM (inactive) | 32 µM (inactive) |
| CC(=O)OCCn1cnc2c(NCC=C(C)C)ncnc21 | > 100 µM (inactive) | > 100 µM (inactive) | > 100 µM (inactive) | > 100 µM (inactive) | > 100 µM (inactive) | > 100 µM (inactive) | > 100 µM (inactive) | > 100 µM (inactive) | > 100 µM (inactive) | > 100 µM (inactive) | > 100 µM (inactive) | > 100 µM (inactive) | > 100 µM (inactive) | > 100 µM (inactive) | > 100 µM (inactive) | > 100 µM (inactive) | > 100 µM (inactive) | > 100 µM (inactive) | > 100 µM (inactive) | > 100 µM (inactive) |
| Cc1ccc(S(=O)(=O)NN=C2C(C)(C)CC2(C)C)cc1 | > 100 µM (inactive) | > 100 µM (inactive) | > 100 µM (inactive) | > 100 µM (inactive) | > 100 µM (inactive) | > 100 µM (inactive) | 76.2 µM (inactive) | > 100 µM (inactive) | > 100 µM (inactive) | > 100 µM (inactive) | > 100 µM (inactive) | > 100 µM (inactive) | > 100 µM (inactive) | > 100 µM (inactive) | > 100 µM (inactive) | 68.7 µM (inactive) | > 100 µM (inactive) | > 100 µM (inactive) | > 100 µM (inactive) | > 100 µM (inactive) |
| C=C1CC2CC[C@@]34C[C@H]5O[C@@H]6C(O[C@H]7CC[C@H](CC(=O)OC8[C@H](C)C9OC%10C[C@]%11(C[C@@H]%12O[C@]%13(C[C@H](C)[C@@H]%14O[C@H]([C@H](O)C[C@H](O)CO)C[C@@H]%14O%13)C[C@H](C)[C@@H]%12O%11)OC%10CC9O[C@H]8C[C@H]8O[C@H](CC[C@@H]1O2)C[C@@H](C)C8=C)O[C@H]7[C@@H]6O3)[C@@H]5O4 (stereo not given in full) | 0.00539 µM (active) | 0.00505 µM (active) | 0.000141 µM (active) | 0.00131 µM (active) | 0.000491 µM (active) | 0.00405 µM (active) | 0.000484 µM (active) | 0.000113 µM (active) | 0.000303 µM (active) | 0.00131 µM (active) | 0.000676 µM (active) | 0.000597 µM (active) | 0.000492 µM (active) | 0.000752 µM (active) | 0.000674 µM (active) | 0.000588 µM (active) | 0.00218 µM (active) | 0.00219 µM (active) | 0.00166 µM (active) | 0.00376 µM (active) |
| O=C(/C=C/c1ccc(O)c(O)c1)OCCOC(=O)/C=C/c1ccc(O)c(O)c1 | 23.2 µM (inactive) | 39.1 µM (inactive) | 26.7 µM (inactive) | 42.1 µM (inactive) | 39.4 µM (inactive) | 25.9 µM (inactive) | 24.8 µM (inactive) | 24.7 µM (inactive) | 19.3 µM (inactive) | 21.5 µM (inactive) | 22.4 µM (inactive) | 28.6 µM (inactive) | 19.5 µM (inactive) | 20.9 µM (inactive) | 22.6 µM (inactive) | 33.1 µM (inactive) | 35 µM (inactive) | 36.4 µM (inactive) | 42.2 µM (inactive) | 27.7 µM (inactive) |
